Measured values from patent US10106588B2, “Nucleic acids encoding peptides for treating wounds, anti-angiogenic compounds and uses thereof” (Trustees of Tufts College, priority 2008, dated 2018).
Where no end group is shown, it is not given here.

Tests used:
[1] = system: Normal Human Epithelial Keratinocyte (NHEK); assay: in vitro response to injury: keratinocyte migration / relative wound closure; assay type: cell-based; conditions: for relative wound closure via NHEK migration: 0.5 nM of each peptide, compared to control (FIG. 4); for keratinocyte migration in response to injury in vitro: general statement, no concentration
Protocol: FIG. 4 is a graph illustrating a measure of relative wound closure via Normal Human Epithelial Keratinocyte (NHEK) migration after exposure to 0.5 nM of each of the peptides of SEQ ID NOs: 1, 2, and 3 (“UN1,” “UN2,” and “UN3” respectively).
(§1) Each of the three peptide sequences were then analyzed for activity via (1) in vitro angiogenesis assays where blood vessel formation in vitro was quantified; (2) in vitro response to injury analyses, including quantitative analysis, of migration in response to injury; and (3) in vitro quantitation of cell proliferation assays. The results of experiments performed are illustrated in FIGS. 1 to 4.
In addition, each of the three peptides of the invention were compared with regard to adult normal human epithelial keratinocyte migration.

[2] = system: Human Microvascular Endothelial Cells (HMVEC); assay: in vitro angiogenesis assay: tubule formation from HMVEC in Matrigel; assay type: cell-based; conditions: for induction of angiogenesis in vitro: general statement, no concentration
Protocol: FIG. 1 is an illustration of a comparison 0.5 nM of the peptide of SEQ ID NO: 1 (“UN1”) to a serum control sample in the formation of tubules from Human Microvascular Endothelial Cells (HMVEC) in Matrigel™ after 3 hours.
FIG. 2 is a graph illustrating a measure of angiogenesis in terms of total process length in Human Microvascular Endothelial Cells (HMVEC) with 0.4 nM and 250 nM of the SEQ ID NO: 1 (“UN1”).
FIG. 3 is a graph illustrating a measure of angiogenesis in terms of total process length in Human Microvascular Endothelial Cells (HMVEC) with 0.4 nM and 250 nM of the peptide of SEQ ID NO: 3 (“UN3”).
as §1
The peptide (SEQ. ID NO: 1 (“UN1”)) was compared to each of VEGF 4 ng/ml and Serum Control in an in vitro angiogenesis analysis.
The peptide (SEQ ID NO: 3 (“UN3”)) was also compared to VEGF and Serum Control in in vitro angiogenesis analysis.

ELLESYIDR [UN1]
relative wound closure via NHEK migration [1]: significantly better | keratinocyte migration in response to injury in vitro [1]: promote keratinocyte migrations | formation of tubules (number and lengths of processes or tubules), in vitro angiogenesis ([2]; 0.5 nM peptide, HMVEC in Matrigel, after 3 hours, versus serum control (FIG. 1)): significant induction of in vitro angiogenesis | induction of angiogenesis in vitro [2]: induce angiogenesis in vitro | tubule formation ([2]; in comparison to Serum Control and VEGF 4 ng/ml (FIGS. 1 and 2)): induced significant tubule formation | process length ([2]; in comparison to Serum Control and VEGF 4 ng/ml, 0.4 nM and 250 nM (FIG. 2)): significant tubule formation and process length

ELLESYIDRPTATSEYQTFFNPR [UN3]
relative wound closure via NHEK migration [1]: significantly better | keratinocyte migration in response to injury in vitro [1]: promote keratinocyte migrations | induction of angiogenesis in vitro [2]: induce angiogenesis in vitro | process length ([2]; in comparison to VEGF, peptide at 250 nM (FIG. 3)): significant increase in process length | process length ([2]; in comparison with Serum Control, 0.4 nM and 250 nM (FIG. 3)): significant increase in process length

TATSEYQTFFNPR [UN2]
relative wound closure via NHEK migration [1]: significantly better
